Results taken from ChEMBL document CHEMBL1150709, “Irisones A and B: two new isoflavones from Iris missouriensis” (1987).

System: P388
Test: Cytotoxicity against mouse P388 cells
Type: functional
Conditions: read-out: ED50 (the source's name)

Row | Structure (SMILES) | EC50 [µg/mL]
1 | COc1ccccc1-c1coc2cc(O)c(OC)c(O)c2c1=O | > 50
2 | COc1ccccc1-c1coc2cc3c(c(O)c2c1=O)OCO3 [IRISONE A] | > 50
3 | O=c1c(-c2ccccc2O)coc2cc3c(c(O)c12)OCO3 [IRISONE B] | > 50
